Seven compounds from US20080287398A1, “COLD MENTHOL RECEPTOR-1 ANTAGONISTS” (priority 2007, published 2008) can be followed below.

Assay [1] addresses T1, canine TRPM8 (Canis lupus familiaris, UniProt Q1A7N1).
T1 construct: expressed in transfected cells
Put plainly: In vitro canine TRPM8 functional assay (Ca2+-sensitive dye, FLIPR/FDSS, icilin activation). It is filed as cell-based. Particulars: HEK293 cells expressing canine TRPM8, icilin activation; for inhibition at 1 µM: HEK293, 1 μM compound, read-out: % I (1 μM); for IC50: eight-point dose-response, read-out: IC50; for % I (0.5 μM): 0.5 μM compound. Summed up: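 HEK293 cells stably expressing canine TRPM8, loaded with Calcium 3 dye, preincubated with compound for 5 min before icilin at a concentration giving ~80% maximal response. Ca2+ fluorescence by FLIPR or FDSS; basal-subtracted, normalized to % maximal response, quadruplicate wells, sigmoidal fit for EC50/IC50.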

Assay [2] deals with Male Sprague Dawley rats. Put plainly: Inhibition of icilin-induced wet-dog shakes in rats. It is filed as in vivo. Particulars: rat; 30 mg/kg i.p.; 15′ pre icilin; wet-dog shakes vs vehicle.
Assay [3] relates to Sprague-Dawley rats. The assay is described as follows: CFA-induced paw radiant heat hypersensitivity. Particulars: rat; for inhibition in vivo at 30 mg/kg: read-out: % Reversal. The format is in vivo, rat. The procedure:
Intraplantar injection of Complete Freund's Adjuvant (CFA) in rodents results in a long-lasting inflammatory reaction, characterized by a pronounced hypersensitivity to both thermal and mechanical stimuli. This hypersensitivity peaks between 24-72 hours following injection and can last for several weeks. […] This paradigm also may be conducted with a multiple dosing or a prophylactic dosing regime designed to alter the course of hyperalgesia development. This test predicts the analgesic, anti-allodynic and antihyperalgesic effect of numerous effective clinical agents, including NSAIDS such as acetaminophen, aspirin and ibuprofen, and opioids such as morphine.
Each rat was placed in a test chamber on a warm glass surface and allowed to acclimate for approximately 10 minutes. A radiant thermal stimulus (beam of light) was then focused through the glass onto the plantar surface of each hind paw in turn. The thermal stimulus was automatically shut off by a photoelectric relay when the paw was moved or when the cut-off time was reached (20 seconds for radiant heat at ˜5 Amps). An initial (baseline) response latency to the thermal stimulus was recorded for each animal prior to the injection of CFA. Twenty-four hours following intraplantar CFA injection, the response latency of the animal to the thermal stimulus was then re-evaluated and compared to the animal's baseline response time. […] Immediately following the post-CFA latency assessment, test compound or vehicle (usually Solutol, hydroxypropyl methylcellulose, hydroxypropyl beta-cyclodextrin or PEG-400) was administered i.p. or p.o. to rats. […] The percent reversal (% R) of hypersenstivitiy was calculated according to the following formula:
% Reversal=(Treatment Response-CFA Response)/(Baseline Response-CFA Response)×100.

Assay [4] relates to male CD1 mice. The assay is described as follows: Acetic acid graded abdominal irritant test with a 24-hour thioglycolate pretreatment. The format is in vivo. Particulars: mouse; 30 mg/kg p.o.; time 1 h; abdominal contractions vs vehicle. The protocol: A chemical irritant (such as acetic acid, kaolin, bradykinin, phenyl-p-(benzo) quinine, bromo-acetylcholine, or zymosan) is injected in mice intraperitoneally, causing a contraction of the abdominal musculature, which is characterized by an elongation of the body extending through to the hind limbs. The number of such responses is quantitated and is reduced by pretreatment of analgesic agents, thus forming the basis for a screening test (Collier H O et al. Br J Pharmacol Chemother 1968, 32(2): 295-310). This type of abdominal irritant test has been used to predict the analgesic effect of numerous clinically effective agents, the potency of which in the abdominal irritant test parallels the magnitude of the dose needed in the relief of clinical pain.
One modification of the chemically-induced abdominal irritant model of visceral pain is to pretreat animals with agents known to induce inflammatory responses following intraperitoneal injection (such as LPS, zymosan, or thioglycolate). […] Because of the up-regulation of the TRPM8 receptor in inflammation, TRPM8 antagonists that are effective at reducing the mean number of contractions are predicted to provide antiinflammatory action in human clinical use.
The ability of compounds of Formula (I) to mitigate chemical irritant—induced abdominal contractions following a pre-conditioning inflammatory stimulus were studied. […]

In assay [5] the test system is male SD rats. Put plainly: Chronic constriction injury (CCI) model of neuropathic pain, acetone-induced hypersensitivity. The format is in vivo. The settings on record: rat. The procedure:
Through the mesh floor a series of five applications of acetone (0.05 mL/application) was sprayed onto the bottom of the paw using a multidose syringe device. A positive response took the form of an abrupt withdrawal or lifting of the paw. The percentage of positive responses from the five trials represented the individual's overall response that was then averaged over the entire treatment group. […] An ascending dose response relationship (as in Table 10 below) was generated by addition of successive doses of test compound followed by re-assessment of behavior.

Assay [6] has as its target T1, canine TRPM8. The assay is described as follows: TRPM8 patch clamp assay (whole-cell, HEK293 cells). It is filed as cell-based. The protocol: For patch clamp experiments, HEK293 cells stably transfected with canine TRPM8 were cultured in DMEM supplemented with 10% fetal bovine serum, 100 units/ml penicillin, 100 μg/ml streptomycin and 1 mg/ml G418. Cells were maintained at 37° C. and in 5% CO2.
The extracellular solution contained (in mM): NaCl, 132; EGTA, 1; KCl, 5.4; MgCl2, 0.8; HEPES, 10; glucose, 10; pH=7.4. Recordings were performed using the conventional whole-cell patch clamp technique, 1-2 days after plating cells onto glass coverslips at densities appropriate for single cell recording. Currents were amplified by a patch clamp amplifier and filtered at 2 kHz (Axopatch 200B, Molecular Devices, Union City, Calif.). Menthol (100 μM) was applied to the cell at 0.5 ml/min via a gravity-fed perfusion system. Recordings involving menthol activation were performed at 22° C.
In experiments where temperatures were varied, temperature ramps were generated by cooling the perfusate in an in-line cooler (Model SC-20, Warner Instruments, Hamden, Conn.) controlled by a temperature controller (Model CL-100, Warner Instruments). The temperature in the vicinity of the recorded cell was measured with a custom-made miniature thermo-microprobe connected to a monitoring thermometer (Model TH-8, Physitemp, Clifton, N.J.), and sampled using Digidata 1322A and pClamp 9.0 (Molecular Devices), as were the currents concurrently measured in the whole-cell patch clamp mode. The current was continuously sampled (at 100 Hz) at a holding potential of −60 mV.
Compounds were diluted from 10 mM DMSO stocks (stored at −20° C.) into an extracellular solution either containing 100 μM menthol or subjecting to cooling. Increasing concentrations of a compound were applied to a cell in a cumulative manner and concentration-dependent responses were measured after steady-state activation was achieved by either 100 μM menthol or cooling to 10° C. A saturating concentration of a reference antagonist was applied at the end of an experiment (either in the presence of 100 μM menthol or 10° C. temperature) to establish the baseline from which all the other measurements were subtracted.
Percentage inhibition by a compound was calculated as follows: 100×(1−Icomp/I0); where Icomp and I0 are steady-state current amplitudes in either the presence or absence of a concentration of the compound.
For orientation: In patch-clamp work, channel activity is measured electrically.

The test system of assay [7] is rats. Put plainly: Reversal of icilin-induced behaviors (wet-dog shakes) in rats. Particulars: rat; 30 mg/kg p.o.; 1 h post-icilin. It is filed as in vivo. The protocol:
In this paradigm, icilin-induced shaking was counted for 10 minutes followed by administration of a compound of Formula (I). The diminution of shaking behavior is represented as a percent inhibition relative to icilin-induced shakes in the absence of test compound administration, as described by the following formula: % Inhibition=[1−(WDS count following test compound dose/WDS count prior to test compound dose)]×100.

Where [8] appears, read: 30 mg/kg p.o., time 2 h (printed 2 h or 2).
Where [9] appears, read: read-out: IC50, mode of activation Cold (10° C.), HEK293 cells stably transfected with canine TRPM8, cooling to 10° C.
The mark [10] stands for this setting: read-out: IC50, mode of activation Menthol (100 μM), HEK293 cells stably transfected with canine TRPM8, 100 μM menthol, 22° C.

For orientation: IC50 means the concentration needed to halve the response being measured. The % Inhibition is the percentage by which the read-out fell short of the control. In general, ED50 refers to the dose at which the effect has come halfway, by size or by number of responders.

Values joined by “and” are separate entries in the source; they are usually repeats but may differ in a detail not shown here. Identical values can stand only once. Like-named read-outs stand apart in the source and are kept apart here.

T1 sequence (Q1A7N1 1-1104): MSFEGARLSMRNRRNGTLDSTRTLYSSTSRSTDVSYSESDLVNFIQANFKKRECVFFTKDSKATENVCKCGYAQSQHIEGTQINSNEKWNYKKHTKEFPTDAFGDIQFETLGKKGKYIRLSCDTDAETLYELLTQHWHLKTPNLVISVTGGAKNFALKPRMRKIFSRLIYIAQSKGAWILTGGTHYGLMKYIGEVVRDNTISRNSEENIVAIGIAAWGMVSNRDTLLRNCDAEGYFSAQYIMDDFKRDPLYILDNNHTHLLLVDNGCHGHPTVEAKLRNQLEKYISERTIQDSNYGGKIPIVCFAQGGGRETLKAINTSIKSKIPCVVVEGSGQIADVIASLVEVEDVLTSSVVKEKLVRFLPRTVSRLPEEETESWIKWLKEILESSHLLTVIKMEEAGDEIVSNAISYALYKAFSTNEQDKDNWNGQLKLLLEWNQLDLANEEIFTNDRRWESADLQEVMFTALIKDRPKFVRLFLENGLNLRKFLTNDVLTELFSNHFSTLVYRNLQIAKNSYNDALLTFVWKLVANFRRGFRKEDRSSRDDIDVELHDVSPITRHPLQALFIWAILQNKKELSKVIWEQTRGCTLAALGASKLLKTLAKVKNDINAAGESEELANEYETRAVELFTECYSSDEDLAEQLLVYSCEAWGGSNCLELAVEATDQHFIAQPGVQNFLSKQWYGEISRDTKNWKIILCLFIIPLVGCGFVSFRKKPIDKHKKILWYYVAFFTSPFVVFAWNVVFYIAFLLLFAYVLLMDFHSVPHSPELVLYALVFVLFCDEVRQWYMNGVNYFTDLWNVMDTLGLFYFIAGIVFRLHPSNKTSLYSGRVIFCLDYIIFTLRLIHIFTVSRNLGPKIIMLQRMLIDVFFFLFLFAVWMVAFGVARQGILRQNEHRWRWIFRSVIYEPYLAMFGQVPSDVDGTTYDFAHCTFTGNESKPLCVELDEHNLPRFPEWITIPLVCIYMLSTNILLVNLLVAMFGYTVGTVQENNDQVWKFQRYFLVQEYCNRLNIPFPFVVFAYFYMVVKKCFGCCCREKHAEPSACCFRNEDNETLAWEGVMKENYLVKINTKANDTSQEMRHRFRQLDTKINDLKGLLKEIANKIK

Regarding `CC(C)OP(=O)(OC(C)C)C(Cc1ccc(F)c(F)c1)c1sc2ccccc2c1Br` (stereo not drawn) [Cpd 15, [1-(3-Bromo-benzo[b]thiophen-2-yl)-2-(3,4-difluoro-phenyl)-ethyl]-phosphonic acid diisopropyl ester], in assay [1], the inhibition at 1 µM turned out to be 99%; the IC50 is 29 nM and 48 nM and 105 nM. For the same compound, in assay [2], the “% Inhibition” value was found to be 71.1%. In assay [3] (ip, 30 mg/kg i.p., time 1 h), the inhibition in vivo at 30 mg/kg came to 95%. Further, in assay [3] (po, 30 mg/kg p.o., time 1 h), the inhibition in vivo at 30 mg/kg was found to be 82%. Further, in assay [3] (po, p.o., 3-point dose-response, 10% solutol vehicle, 1 h time point, read-out: oral ED50), the ED50 stood at 11.4 mg/kg. The “% I” value in assay [4] came to 33%.

As to `Cc1c(C(Cc2ccc(F)c(F)c2)P(=O)(OC(C)C)OC(C)C)sc2ncccc12` (stereo not drawn) [Cpd 34, [2-(3,4-Difluoro-phenyl)-1-(3-methyl-thieno[2,3-b]pyridin-2-yl)-ethyl]-phosphonic acid diisopropyl ester], in assay [1], the inhibition at 1 µM was 100%; the IC50 is 120 nM and 150 nM and 200 nM. For the same compound, the “% Inhibition” value in assay [2] was 28.8%.

Turning to `CCCP(=O)(CCC)C(OCc1ccc(F)c(F)c1)c1sc2ccccc2c1C` (stereo not drawn) [Cpd 42], in assay [1], the inhibition at 1 µM is 100%; the IC50 was 150 nM and 140 nM. Moreover, the “% Inhibition” value in assay [2] is given as 70.6%.

For the compound `Cc1c(C(Cc2ccc(F)c(F)c2)P(=O)(OCC(C)(C)C)OCC(C)(C)C)sc2ccccc12` (stereo not drawn) [Cpd 53, [2-(3,4-Difluoro-phenyl)-1-(3-methyl-benzo[b]thiophen-2-yl)-ethyl]-phosphonic acid bis-(2,2-dimethyl-propyl) ester], the inhibition at 1 µM in assay [1] is 100%. The IC50 in assay [1] is 220 nM and 260 nM. The “% Inhibition” value in assay [2] came out at 65.6%. The inhibition in vivo at 30 mg/kg in assay [3] (ip, 0.5 h, 30 mg/kg i.p., time 30′) came to 77%; in assay [3] (po, 30 mg/kg p.o., time 2 h (printed 2 h or 2)) it was 44%.

Turning to `CC(C)OP(=O)(OC(C)C)[C@H](Cc1ccc(F)c(F)c1)c1sc2ccccc2c1Br` [Cpd 235, (R)-[1-(3-Bromo-benzo[b]thiophen-2-yl)-2-(3,4-difluoro-phenyl)-ethyl]-phosphonic acid diisopropyl ester], the IC50 in assay [1] was found to be 253 nM; in assay [6] (IC50, mode of activation Menthol (100 μM), HEK293 cells stably transfected with canine TRPM8, 100 μM menthol, 22° C.), 59.2 nM. Also, the inhibition in vivo at 30 mg/kg in assay [3] (po, 30 mg/kg p.o., time 1 h) amounted to 45%. Moreover, in assay [5] (30 mg/kg p.o., preRx 1 hr), the “% of Allodynic Baseline” value came to 34.3%.

In the case of “(S)-[1-(3-Bromo-benzo[b]thiophen-2-yl)-2-(4-fluoro-phenyl)-ethyl]-phosphonic acid diisopropyl ester [Cpd 239]”, the “% I (0.5 μM)” value in assay [1] is 103, 103%. Moreover, the IC50 in assay [1] was 37 nM and 27 nM and 31 nM; in assay [6] (setting [9]) it was 5.8 nM; in assay [6] (setting [10]), 3 nM. For the same compound, the “% Inhibition” value in assay [7] amounted to 48.4%. In assay [3] (setting [8]), the “% Reversal” value was found to be 36%. Moreover, in assay [5] (30 mg/kg p.o., preRx 1 hr), the “% of Allodynic Baseline” value amounted to 29.4%.

As for “(S)-[1-(3-Bromo-benzo[b]thiophen-2-yl)-2-(4-trifluoromethoxy-phenyl)-ethyl]-phosphonic acid diisopropyl ester [Cpd 236]”, the “% I (0.5 μM)” value in assay [1] was 103, 103%. The “% Inhibition” value in assay [7] turned out to be 36.8%. Besides, the “% Reversal” value in assay [3] (setting [8]) worked out at 25%. Also, the “% of Allodynic Baseline” value was found to be 28.6% in assay [5] (30 mg/kg p.o., preRx 4 hr) and 68.8% in assay [5] (100 mg/kg p.o., preRx 4 hr). For the same compound, the figures for the IC50 in assay [6] (setting [9]) and in assay [6] (setting [10]) were 2.9 nM and 1.4 nM, respectively.
